Measured values taken from ChEMBL document CHEMBL1131900, “4-Hydroxy-1-[3-(5-(1,2,4-triazol-4-yl)-1H-indol-3-yl)propyl]piperidines: selective h5-HT1D agonists for the treatment of migraine” (Bioorg Med Chem Lett, 1999).

Columns and labels:
[1] = target: Serotonin 1 receptors; 5-HT1B & 5-HT1D (Homo sapiens) (UniProt P28222+P28221); assay: Binding selectivity for h5-HT1D receptor to that of h5-HT1B receptor; assay type: protein assay
[2] = target: 5-hydroxytryptamine receptor 1B (Homo sapiens, UniProt P28222); assay: Ability to displace [3H]5-HT from recombinant human 5-hydroxytryptamine 1B receptor stably expressed in CHO cells determined in vitro; assay type: cell-based
[3] = target: T1, 5-hydroxytryptamine receptor 1D (Homo sapiens, UniProt P28221); assay: Ability to displace [3H]-5-HT from recombinant human 5-hydroxytryptamine 1D receptor stably expressed in CHO cells determined in vitro; assay type: cell-based
[4] = target: T1, 5-hydroxytryptamine receptor 1D; assay: Measurement of agonist-induced [35S]-GTP gamma-S binding in CHO cells stably transfected with 5-hydroxytryptamine 1D receptor; assay type: functional, cell-based
[5] = target: T1, 5-hydroxytryptamine receptor 1D; assay: Maximum stimulation of [35S]GTP gamma-S binding expressed relative to the maximal effect produced by 5-hydroxytryptamine 1D receptor; assay type: functional

T1 sequence (P28221 whole entry): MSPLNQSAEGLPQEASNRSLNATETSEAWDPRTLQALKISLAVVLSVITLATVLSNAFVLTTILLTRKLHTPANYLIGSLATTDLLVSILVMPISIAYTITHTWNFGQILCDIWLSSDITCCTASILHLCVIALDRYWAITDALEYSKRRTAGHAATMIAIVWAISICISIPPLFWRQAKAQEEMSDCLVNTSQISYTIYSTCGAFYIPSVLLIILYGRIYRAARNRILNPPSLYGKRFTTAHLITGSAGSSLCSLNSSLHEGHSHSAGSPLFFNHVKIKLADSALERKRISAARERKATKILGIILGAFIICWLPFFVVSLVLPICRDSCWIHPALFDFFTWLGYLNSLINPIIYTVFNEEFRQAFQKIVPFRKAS
5-hydroxytryptamine receptor 1B, sequence (P28222 whole entry): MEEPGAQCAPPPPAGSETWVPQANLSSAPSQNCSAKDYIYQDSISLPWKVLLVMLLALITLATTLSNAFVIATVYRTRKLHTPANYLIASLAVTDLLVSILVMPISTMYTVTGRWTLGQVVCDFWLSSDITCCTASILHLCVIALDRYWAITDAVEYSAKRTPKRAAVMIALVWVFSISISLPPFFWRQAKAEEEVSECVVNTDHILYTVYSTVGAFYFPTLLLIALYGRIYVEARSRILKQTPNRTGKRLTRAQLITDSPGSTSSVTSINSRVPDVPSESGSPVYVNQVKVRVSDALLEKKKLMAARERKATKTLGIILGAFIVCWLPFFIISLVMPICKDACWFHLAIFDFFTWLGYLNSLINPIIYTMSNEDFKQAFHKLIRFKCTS

| SMILES | Ratio [1] | IC50 [2] | IC50 [3] | ED50 [4] | Activity [5] |
| --- | --- | --- | --- | --- | --- |
| OC1(Cc2ccccc2)CCN(CCCc2c[nH]c3ccc(-n4cnnc4)cc23)CC1 | 251 | 32 nM | 0.1 nM | 0.25 nM | 64% |
| CN(Cc1ccccc1)CC1(O)CCN(CCCc2c[nH]c3ccc(-n4cnnc4)cc23)CC1 | 80 | 96 nM | 1.2 nM | 3.8 nM | 91% |
| CN(CC1CCCCC1)CC1(O)CCN(CCCc2c[nH]c3ccc(-n4cnnc4)cc23)CC1 | 22 | 27 nM | 1.2 nM | 1.4 nM | 69% |
| OC1(CNCc2ccccn2)CCN(CCCc2c[nH]c3ccc(-n4cnnc4)cc23)CC1 | 17 | 55 nM | 3.2 nM | 3.2 nM | 96% |
| CC1(C)CCCN(CC2(O)CCN(CCCc3c[nH]c4ccc(-n5cnnc5)cc34)CC2)C1 | 29 | 19 nM | 0.65 nM | 0.9 nM | 67% |
| CN(CC1CC1)CC1(O)CCN(CCCc2c[nH]c3ccc(-n4cnnc4)cc23)CC1 | 20 | 27 nM | 1.35 nM | 1.1 nM | 79% |
| Cc1ccccc1CN(C)CC1(O)CCN(CCCc2c[nH]c3ccc(-n4cnnc4)cc23)CC1 | 68 | 89 nM | 1.3 nM | 3.7 nM | 90% |
| CC(=O)Nc1ccc(CNCC2(O)CCN(CCCc3c[nH]c4ccc(-n5cnnc5)cc34)CC2)cc1 | 3 | 30 nM | 11 nM | 14 nM | 102% |

The remaining lines, values ahead:

| Ratio [1] | IC50 [2] | IC50 [3] | ED50 [4] | Activity [5] | SMILES |
| --- | --- | --- | --- | --- | --- |
| 16 | 340 nM | 21 nM | 9.7 nM | 86% | CC(C)(C)OC(=O)NCC1(O)CCN(CCCc2c[nH]c3ccc(-n4cnnc4)cc23)CC1 |
| 12 | 85 nM | 7.3 nM | – | – | CC(C)(C)CNCC1(O)CCN(CCCc2c[nH]c3ccc(-n4cnnc4)cc23)CC1 |
| 47 | 30 nM | 0.65 nM | 1.7 nM | 95% | CC(C)CN(C)CC1(O)CCN(CCCc2c[nH]c3ccc(-n4cnnc4)cc23)CC1 |
| 34 | 61 nM | 1.8 nM | 1.6 nM | 60% | CN(CC(C)(C)C)CC1(O)CCN(CCCc2c[nH]c3ccc(-n4cnnc4)cc23)CC1 |
| 106 | 47 nM | 0.45 nM | 2.2 nM | 79% | OC1(CNCc2ccccc2)CCN(CCCc2c[nH]c3ccc(-n4cnnc4)cc23)CC1 |
| 13 | 57 nM | 4.5 nM | – | – | OC1(CNCC2CC2)CCN(CCCc2c[nH]c3ccc(-n4cnnc4)cc23)CC1 |
| 21 | 83 nM | 4 nM | – | – | Cc1ccccc1CNCC1(O)CCN(CCCc2c[nH]c3ccc(-n4cnnc4)cc23)CC1 |
